A short description of the assay: effectiveness of biocides for optrode protection against biofouling. The note with it: ppb concentrations.

The record followed here is US6551583B2, “Antibiofouling method and apparatus for optical sensors” (Airak, Inc,, priority 2000, dated 2003).

In the case of `N#Cc1c(Cl)c(Cl)c(Cl)c(C#N)c1Cl` [chlorothalonil], the “biocide effectiveness (optrode protection)” value is listed as “effective even at ppb concentrations”.
